The values that follow come from patent US5034396A, “Method of treating depression with optically active isomers of 20,21-dinoreburnamenines” (Roussel Uclaf, priority 1987, dated 1991).

For test [1], the system named is alpha2 adrenergic receptors. The test can be described thus: Affinity for the alpha2 adrenergic receptors (3H rauwolscine displacement, rat cortex membranes). The test is classed as binding. The settings on record: 3H rauwolscine 0.15 nM, 45 minutes at 25° C., from CD (phentolamine) and CX (product) concentrations inhibiting 50% of specific fixation. How it is done: (1) Affinity for the alpha2 adrenergic receptors
10 cortices removed from the brains of male rats weighing an average of 150 g were homogenized in 90 ml of sucrose 0.32M and after centrifuging the homogenized mixture at 1,000 g for 10 minutes at 0° C., the supernatant was centrifuged at 30,000 g for 10 minutes at 0° to 4° C. The new residue obtained was suspended in 480 ml of NaKPO4 buffer, pH 7.4, 50 mM. 2 ml of the suspension were then incubated for 45 minutes at 25° C. in the presence of ^3 H rauwolscine at a concentration of 0.15 nM: (i) alone (ii) with increasing concentrations of the product under test, or (iii) to determine the non-specific fixation, with non-radioactive phentolamine at a concentration of 10^-5 M. The incubated suspensions were filtered on Whatman GF/C and the filters were washed three times with 5 ml of NaKPO4 buffer, pH 7.4 at 0° C. The radioactivity of the filters was measured by liquid scintillation.
The affinity of the product tested for the alpha2 adrenegic receptors was given relative to phentolamine as reference product.
CD=concentration of phentolamine inhibiting 50% of the specific fixation of the ^3 H rauwolscine:
CX=concentration of the product under test inhibiting 50% of the specific fixation of the ^3 H rauwolscine.

Another test concerns Sprague Dawley rats. Kind of test: Test of anti-depressive activity (forced swimming immobility). The conditions noted are these: Rattus norvegicus, ip, immobility during 5 minutes, intraperitoneally 24 hours, 5 hours and a half-hour before the test, read-out: DA50 (the source's name). The test is classed as in vivo. How it is done: (4) Test of anti-depressive activity
The tests were carried out on groups of 5 Sprague Dawley rats and the non-conditioned animals were put for 15 minutes in a vertical perspex cylinder (diameter: 18 cm, height: […]) containing water at 25° C. to a height of 15 cm (initial swimming test). They were then dried for 15 minutes in an enclosure heated to 32° C. and 24 hours later, they were replaced in the cylinder filled with water, and the total duration of the periods of immobility was measured during 5 minutes. The compound was administered intraperitonally successively 24 hours, 5 hours and a half-hour before the test. The first administration was made immediately after the first swimming test and just before replacing the animals in their breeding box. The averages of the groups treated were compared with those of the control group by the Dunnett test.

Test [2] relates to mice. Kind of test: Test of neuronal protection in mice (kainic acid striatal lesion, serum enolase gamma-gamma). Type of test: in vivo. The settings on record: mouse, 2 μg kainic acid in right striatum; product intraperitoneally 60 minutes before; blood samples 24 hours later; dose not given. As to the method:
(3) Test of neuronal protection in mice
A cerebral lesion was carried out on the mouse by injection in the right striatum of 2 μg of kainic acid in a volume of 0.5 μl. […] The products were injected intraperitonally 60 minutes before the neurotoxic and the blood samples were taken 24 hours later.

The test system of test [3] is mice. The test can be described thus: Hypobaric anoxia test on mice. The test is classed as in vivo. The settings on record: depression of 600 mm Hg, max 3 minutes, intraperitoneally 60 minutes before the test, dose not given. How it is done:
(2) Hypobaric anoxia test on mice
This consisted of measuring over a maximum duration of 3 minutes the survival time of mice placed in a 2 liter enclosure in which there was a depression of 600 mm Hg. The products were administered intraperitoneally at a volume of 0.2 ml/10 g 60 minutes before the test.

SMILES strings stand for the structures.

With `C1=Cn2c3c(c4ccccc42)CCN2CCC[C@H]1[C@@H]32` [Example 5, (3α) 20,21-dinoreburnamenine], the “ARL (relative affinity for alpha2 adrenergic receptors, relative to phentolamine)” value in test [1] stood at 8.

`O[C@H]1C[C@@H]2CCCN3CCc4c(n1c1ccccc41)[C@@H]23` [Example 3, (14α, 16α) 14,15-dihydro-20,21-dinoreburnamenin-14-ol]: the ED50 with Sprague Dawley rats is approximately 10 mg/kg. For the same compound, the enolase gamma-gamma in the test on mice [2] was -24%. Also, the Survival time result with mice [3] is “+37%”. Moreover, in test [1], the “ARL (relative affinity for alpha2 adrenergic receptors, relative to phentolamine)” value was 0.3.

In the case of `C1=Cn2c3c(c4ccccc42)CCN2CCC[C@@H]1[C@H]32` [Example 6, (16α) 20,21-dinoreburnamenine], the “ARL (relative affinity for alpha2 adrenergic receptors, relative to phentolamine)” value in test [1] is given as 633.

As for `O[C@@H]1C[C@H]2CCCN3CCc4c(n1c1ccccc41)[C@H]23` [Example 4, (3α, 14β) 14,15-dihydro-20,21-dinoreburnamenin-14-ol], the ED50 in the test on Sprague Dawley rats was approximately 5 mg/kg. The “ARL (relative affinity for alpha2 adrenergic receptors, relative to phentolamine)” value in test [1] was determined as 57.
